The record followed here is ChEMBL document CHEMBL1201862, “PubChem BioAssay data set” (2004).

Test systems include SK-MEL-5; COLO 205; TK-10; OVCAR-3; HL-60; LOX IMVI; OVCAR-5; IGROV-1; ACHN; SNB-75; Hs-578T; NCI-H226; SK-MEL-28; T47D; OVCAR-4; SK-OV-3; BT-549; UACC-257; NCI-H23; CCRF-CEM.
Test in all cases: NCI anticancer screen, dose series, 48 h

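1) Cells in 96-well plates. 2) Compound, 48 h, 5 concentrations. 3) Linear interpolation between surrounding doses. 4) Unreached endpoint = highest concentration. GI50: concentration for 50% inhibition of growth.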 Activity calls are given as the source filed them. Cut-off read from the data, not from the text of the source: active = GI50 up to about 1.1 µM and inactive = higher. A value given as a limit tells only on which side of the number the result lay.

Take `CN(C(=O)c1ccncc1)c1ccccc1`: the GI50 in the experiment with SK-MEL-5, in the experiment on COLO 205, in the experiment on TK-10, with OVCAR-3, in the experiment on HL-60 and in the experiment on LOX IMVI was > 100 µM (inactive) each time. Moreover, the GI50 with OVCAR-5, in the experiment with IGROV-1, with ACHN, in the experiment on SNB-75, in the experiment on Hs-578T and in the experiment with NCI-H226 was > 100 µM (inactive) in each case. The GI50 with SK-MEL-28, in the experiment with T47D, with OVCAR-4, in the experiment on SK-OV-3, with BT-549 and in the experiment with UACC-257 was > 100 µM (inactive) throughout. Besides, the GI50 with NCI-H23 is > 100 µM (inactive).

As to `CC1(C)C2CCC1(C)[C@H](n1c(=O)n([C@@H]3CC4CCC3(C)C4(C)C)c(=O)n([C@@H]3CC4CCC3(C)C4(C)C)c1=O)C2`, the GI50 is 34 µM (inactive) with SK-MEL-5; 42.9 µM (inactive) in the experiment with TK-10; 35.4 µM (inactive) in the experiment with OVCAR-3; 23.9 µM (inactive) in the experiment with HL-60; > 100 µM (inactive) with LOX IMVI; 64 µM (inactive) with OVCAR-5. Further, the GI50 in the experiment with IGROV-1 is 65.6 µM (inactive); with ACHN, 37.8 µM (inactive); with SNB-75 it was 16.2 µM (inactive); with Hs-578T, 37.9 µM (inactive); with NCI-H226, 27.7 µM (inactive); with SK-MEL-28 it was 92 µM (inactive). The GI50 was 42.6 µM (inactive) in the experiment with T47D; > 100 µM (inactive) in the experiment on OVCAR-4; 67.1 µM (inactive) in the experiment on BT-549; 55.8 µM (inactive) in the experiment with UACC-257; 63 µM (inactive) with NCI-H23.

With `COc1ccc2nc3cc(Cl)ccc3c(NCCCCCC(=O)NC(COc3cnc4c(ccc5cccnc54)c3)COc3cnc4c(ccc5cccnc54)c3)c2c1`, the GI50 with COLO 205 is 2.79 µM (inactive); with TK-10, 27.5 µM (inactive); with OVCAR-3, 4.02 µM (inactive); with HL-60 it was 3.44 µM (inactive); in the experiment with LOX IMVI, 3.72 µM (inactive); in the experiment with OVCAR-5 it was 24.1 µM (inactive). Also, the GI50 in the experiment with IGROV-1 is 10 µM (inactive); in the experiment with ACHN, 36.6 µM (inactive); in the experiment on SNB-75 it was 0.0313 µM (active); in the experiment on Hs-578T it was 50.8 µM (inactive); in the experiment with NCI-H226, 4.73 µM (inactive); in the experiment with SK-MEL-28, 17.6 µM (inactive). Moreover, the GI50 in the experiment on T47D is 7.29 µM (inactive); in the experiment on OVCAR-4 it was 7.28 µM (inactive); in the experiment on SK-OV-3, 21.9 µM (inactive); in the experiment with BT-549, 10.5 µM (inactive); in the experiment on CCRF-CEM, 1.99 µM (inactive); in the experiment with UACC-257 it was 8.93 µM (inactive). For the same molecule, the GI50 with NCI-H23 was 28.2 µM (inactive).

Regarding `O=C(NCc1cccnc1)C(=O)NCc1cccnc1`, the GI50 with SK-MEL-5 was > 100 µM (inactive); in the experiment with COLO 205, > 100 µM (inactive); in the experiment with TK-10, > 100 µM (inactive); in the experiment with OVCAR-3, > 100 µM (inactive); with HL-60 it was 27.4 µM (inactive); in the experiment on LOX IMVI, > 100 µM (inactive). The GI50 with OVCAR-5, in the experiment with IGROV-1, with ACHN, with SNB-75, in the experiment on Hs-578T and in the experiment with NCI-H226 was > 100 µM (inactive) each time. Besides, the GI50 in the experiment on SK-MEL-28, with T47D, in the experiment on OVCAR-4, in the experiment on SK-OV-3, in the experiment on BT-549 and in the experiment on UACC-257 was > 100 µM (inactive) throughout. Moreover, the GI50 in the experiment on NCI-H23 was > 100 µM (inactive).

Take `Nc1nc(CCl)nc(N2CCOCC2)n1`: the GI50 in the experiment with SK-MEL-5 is 20.1 µM (inactive); in the experiment on COLO 205, 17.9 µM (inactive); in the experiment with TK-10, 62.7 µM (inactive); with OVCAR-3, > 10 µM (inactive); in the experiment with HL-60 it was 13.9 µM (inactive); with OVCAR-5 it was 19.9 µM (inactive). The GI50 in the experiment with IGROV-1 was 14.3 µM (inactive); in the experiment on ACHN, 16.6 µM (inactive); in the experiment on SNB-75 it was 33.5 µM (inactive); in the experiment on Hs-578T, 38.1 µM (inactive); with NCI-H226 it was 37.4 µM (inactive); in the experiment with SK-MEL-28 it was 20.4 µM (inactive). The GI50 is 55.3 µM (inactive) in the experiment with T47D; 17.4 µM (inactive) in the experiment on OVCAR-4; 45.6 µM (inactive) in the experiment with SK-OV-3; 31.7 µM (inactive) with BT-549; 18.6 µM (inactive) in the experiment on CCRF-CEM; 63.2 µM (inactive) in the experiment on UACC-257. Also, the GI50 in the experiment with NCI-H23 was 17.8 µM (inactive).

As for `OCC1OC(O[C@H]2CN3[C@H](O)[C@@H](O)[C@H](O)[C@H]3C2O)C(O)C(O)C1O` (some centres not stated), the GI50 in the experiment on SK-MEL-5, with COLO 205, in the experiment on TK-10, in the experiment on OVCAR-3, in the experiment on HL-60 and with LOX IMVI was > 100 µM (inactive) throughout. The GI50 in the experiment with OVCAR-5, with IGROV-1, in the experiment with ACHN, with Hs-578T, with NCI-H226 and with SK-MEL-28 was > 100 µM (inactive) each time. For the same molecule, the GI50 in the experiment on T47D, in the experiment on OVCAR-4, in the experiment with SK-OV-3, in the experiment on BT-549, in the experiment on CCRF-CEM and in the experiment with UACC-257 was > 100 µM (inactive) in each case. Besides, the GI50 in the experiment with NCI-H23 was > 100 µM (inactive).

For the molecule `NC1(C(=O)O)CCCC1C(=O)O` (configuration not stated), the GI50 with SK-MEL-5, in the experiment with COLO 205, in the experiment with TK-10, with OVCAR-3, with HL-60 and in the experiment on LOX IMVI was > 100 µM (inactive) each time. For the same molecule, the GI50 with OVCAR-5, in the experiment with IGROV-1, in the experiment with ACHN, in the experiment on SNB-75, in the experiment with Hs-578T and with SK-MEL-28 was > 100 µM (inactive) throughout. Besides, the GI50 in the experiment on T47D, in the experiment on OVCAR-4, in the experiment on SK-OV-3, in the experiment with BT-549, with CCRF-CEM and with UACC-257 was > 100 µM (inactive) in each case. For the same molecule, the GI50 in the experiment on NCI-H23 is > 100 µM (inactive).

As to `CCCN1C(=O)/C(=C\c2ccc(OC)c(OC)c2)S/C1=N\c1ccccc1`, the GI50 was > 100 µM (inactive) in the experiment on SK-MEL-5; > 100 µM (inactive) in the experiment on COLO 205; 31.1 µM (inactive) with TK-10; > 100 µM (inactive) in the experiment on OVCAR-3; > 100 µM (inactive) with HL-60; > 100 µM (inactive) in the experiment with LOX IMVI. The GI50 with OVCAR-5 was > 100 µM (inactive); in the experiment with IGROV-1, > 100 µM (inactive); in the experiment on ACHN it was > 100 µM (inactive); in the experiment on Hs-578T, 44.4 µM (inactive); in the experiment on NCI-H226, > 100 µM (inactive); in the experiment with SK-MEL-28, > 100 µM (inactive). Besides, the GI50 was > 100 µM (inactive) in the experiment on T47D; > 100 µM (inactive) in the experiment on OVCAR-4; 27.9 µM (inactive) in the experiment on SK-OV-3; 87.9 µM (inactive) in the experiment on BT-549; > 100 µM (inactive) in the experiment on CCRF-CEM; > 100 µM (inactive) with UACC-257. Besides, in the experiment on NCI-H23, the GI50 is > 100 µM (inactive).

Regarding `COc1cc2c(cc1OC)C1=Cc3ccc(OC)c(OC)c3C(C#N)N1CC2` (configuration not stated), the GI50 in the experiment with SK-MEL-5 is 17.2 µM (inactive); in the experiment on COLO 205 it was 18.2 µM (inactive); in the experiment with TK-10 it was > 100 µM (inactive); in the experiment with OVCAR-3 it was 34.2 µM (inactive); in the experiment on HL-60, 39 µM (inactive); in the experiment on OVCAR-5 it was > 100 µM (inactive). Also, the GI50 in the experiment with ACHN is > 100 µM (inactive); in the experiment on SNB-75, 5.22 µM (inactive); in the experiment with Hs-578T, 35.8 µM (inactive); in the experiment with NCI-H226, > 100 µM (inactive); in the experiment with SK-MEL-28, 32.4 µM (inactive); with T47D, 9.2 µM (inactive). Also, the GI50 was 67 µM (inactive) in the experiment with OVCAR-4; > 100 µM (inactive) with SK-OV-3; 14.6 µM (inactive) in the experiment with BT-549; 37.9 µM (inactive) in the experiment with CCRF-CEM; 17.7 µM (inactive) with UACC-257; 29.8 µM (inactive) in the experiment with NCI-H23.

Consider `O=[N+]([O-])c1ccc2c(c1)n1c(N3CCCC3)[n+]3ccccc3c1c1c3ccccn3c(N3CCCC3)[n+]21.[O-][Cl+3]([O-])([O-])[O-].[O-][Cl+3]([O-])([O-])[O-]`, for which the GI50 is > 100 µM (inactive) in the experiment on SK-MEL-5; 54 µM (inactive) with COLO 205; > 100 µM (inactive) in the experiment with TK-10; > 100 µM (inactive) with OVCAR-3; 32 µM (inactive) in the experiment with HL-60; > 100 µM (inactive) with LOX IMVI. For the same molecule, the GI50 in the experiment on OVCAR-5 is > 100 µM (inactive); in the experiment with IGROV-1, > 100 µM (inactive); with ACHN, 10 µM (inactive); with SNB-75 it was 44 µM (inactive); in the experiment with Hs-578T, 83.2 µM (inactive); in the experiment with NCI-H226, 44.3 µM (inactive). Further, the GI50 was > 100 µM (inactive) with SK-MEL-28; > 100 µM (inactive) with T47D; > 100 µM (inactive) in the experiment on OVCAR-4; > 100 µM (inactive) in the experiment with BT-549; 21.1 µM (inactive) in the experiment on CCRF-CEM; > 100 µM (inactive) with UACC-257. Further, in the experiment with NCI-H23, the GI50 is > 100 µM (inactive).
